One assay deals with A375-NRAS^Q61K. Description: Pan-Cancer PepTile fitness screen (lentiviral 40-mer peptide library, NGS abundance). The class given is cell-based, human. The settings on record: peptide enrichment day 14 vs day 0. The procedure: (§1) A peptide tilling screen was performed in A375 similarly to a screen done in MDA-MB-231 (FIG. 1) but with a different lentiviral library. The library (Pan-Cancer library) is composed of 1020 genes tiled every 6 amino acids into 40-mer amino acid long peptides. The gene selection was based on their implication in oncogenesis either being as oncogenes or tumor suppressors. The list was built using recent literature that identified new cancer drivers as well as databases such as Uniprot keywords (KW-0656: Proto-oncogene, KW-0043: Tumor suppressor), and Gene Ontology terms (GO1900117: Apoptosis, GO1901979: Cell cycle checkpoint) (FIG. 2). Aside from Human genes, a list of viral genes was also included (KW-1121: Modulation of host cell cycle by virus) that play roles in high jacking cell cycle progression and thus in oncogenesis (FIG. 2).
(§2) The model of study is melanoma, and this disease is stratified into 4 molecular subtypes, BRAF mutants, NRAS mutants, KIT amplification, NF1 mutations (FIG. 3A). The most prominent mutations found in patient affected with metastatic melanomas are BRAF^V600E and NRAS^Q61K (FIG. 3B). RAS play a key role in oncogenesis and resistance to treatments. Indeed, RAS activating mutations is found in ~20% of all human cancers and secondary NRAS mutation leads to acquired resistance to BRAF targeted therapy such as vemurafenib. Thus, the screen was performed in an A375 cell line model which derived from human BRAF^V600E melanoma as well as an engineered A375 transduced with HA-NRAS^Q61K (FIG. 4A, B). Both cell lines grow at a similar rate but the A375-NRAS^Q61K display more than 10-fold resistance to vemurafenib treatment compared to parental A375 (FIG. 4C, D).
(§3) These cells were transduced with the Pan-Cancer library at a low multiplicity of infection (MOI=0.1-0.3). Then, genomic DNA was extracted at day 0 and day 14 post-transduction to quantify the abundance of peptide for each temporal conditions using Next-generation sequencing. Each experimental replicates were deep sequenced with at least 150 million reads and show a coverage between 82-90% of the initial Pan-Cancer Peptide library (FIG. 5). Then, for each individual peptides a cellular fitness score was calculated based on their enrichment between day 0 and day 14. 8090 peptides negatively affecting growth of A375-WT were identified and 8153 peptides for the A375-NRAS^Q61K cell line (FIG. 6). […] Those common hits are found to be tiles from ~100 genes of the Pan-Cancer gene list and show a substantial biological function clustering.

The subject of the next assay is A375-WT. Description: Pan-Cancer PepTile/PiTile fitness screen (lentiviral 40-mer peptide library, NGS abundance). It is filed as cell-based, human. Further details: key: enrichment of each peptide's NGS abundance, early day vs Day 14. The conditions noted are these: for A375-WT Fitness Score: Pan-Cancer library, peptide enrichment day 14 vs day 0.
Text: FIGS. 13A-13D show Pan-Cancer PiTile Workflow. (A) The Pan-Cancer peptide library is composed of 1081 proteins tiled into 40-mer peptides at every 6 amino acids of the parental protein. The DNA-encoded library is cloned into lentiviral vectors and packaged into lentivirus. (B) A375 cell line was transduced with the Pan-Cancer PiTile library. Genomic DNA was then harvested at Day2 and Day 14 post-transduction and cell populations abundance expressing the different peptides were quantified using Next-Generation Sequencing (NGS). Peptide fitness score was then calculated by the abundance of each peptide at Day2 versus Day 14. Then the fitness signal is mapped over the original amino acid positions of the derived protein. (C) Coverage of the plasmid Pan-Cancer library and peptide-amplicons from Day2 and Day 14 replicated was determined by NGS. (D) Dot plot of the experimental result obtain from screening the Pan-Cancer library in A375 cell line.
as §1, §2, §3
We built a DNA-encoded peptide library composed of all known Human oncogenes and Tumor Suppressors that we fragmented in 40 amino acid long peptides, the Pan-Cancer library. Using lentiviral expression system, we transduced the Pan-Cancer library in A375 cell line. After 14 days of growth, the frequency of each peptide is measured by NGS and this reveal which peptides affect cell fitness. […]

Regarding “ARID2_13: 40-mer peptide tile of ARID2, AA start position 72, ARID domain (IVEEFNFPRSCSNAAFALKQYYLRYLEKYEKVHHFGEDDD; UniProt Q68CP9 72-111, looked up, fragment)”, in the assay on A375-NRAS^Q61K, the “A375-NRAS Fitness Score” value is 0.85. In addition, the “A375-WT Fitness Score” value in the assay with A375-WT is reported as −2.41.
Regarding “AXIN1_22: 40-mer peptide tile of AXIN1, AA start position 126, RGS domain (KLEPCDSNEEKRLKLARAIYRKYILDNNGIVSRQTKPATK; RGS domain peptide tile; UniProt O15169 126-165, looked up, fragment)”, the “A375-NRAS Fitness Score” value in the assay with A375-NRAS^Q61K is given as −0.54. The “A375-WT Fitness Score” value in the assay on A375-WT is listed as −2.88.
As to “BRAF_64: 40-mer peptide tile of BRAF, AA start position 378, CR2 domain (NIDDLIRDQGFRGDGGSTTGLSATPPASLPGSLTNVKALQ; UniProt P15056 378-417, looked up, fragment)”, the “A375-NRAS Fitness Score” value with A375-NRAS^Q61K is on record as −2.72. For the same substance, the “A375-WT Fitness Score” value in the assay on A375-WT is given as −2.28.
The matching figures for “CDKN2B_4: 40-mer peptide tile of CDKN2B, AA start position 18, ANK domain (LASAAARGLVEKVRQLLEAGADPNGVNRFGRRAIQVMMMG; UniProt P42772 18-57, looked up, fragment)”: −3.63 and 0.36.
Regarding “CTNNB1_30: 40-mer peptide tile of CTNNB1, AA start position 174, Armadillo domain (MVHQLSKKEASRHAIMRSPQMVSAIVRTMQNTNDVETARC; UniProt P35222 174-213, looked up, fragment)”, in the assay with A375-NRAS^Q61K, the “A375-NRAS Fitness Score” value is −0.85. The “A375-WT Fitness Score” value in the assay on A375-WT is recorded as −3.29. For the same substance, the Fitness score with A375-WT (PanCancer Peptide Table (Table 3), lentivirally expressed 40-mer peptide tile) was −3.30.
With “DOCK4_114: 40-mer peptide tile of DOCK4, AA start position 678, Armadillo domain (LIKVLKWYVDRITEAERQEHIQEVLKAQEYIFKYIVQSRR; UniProt Q8N1I0 678-717, looked up, fragment)”, the “A375-NRAS Fitness Score” value with A375-NRAS^Q61K is listed as −3.45. In addition, the “A375-WT Fitness Score” value with A375-WT was found to be 0.87.
“ELF4_39: 40-mer peptide tile of ELF4, AA start position 228, ETS domain”: in the assay with A375-NRAS^Q61K, the “A375-NRAS Fitness Score” value was −1.35. In the assay on A375-WT, the “A375-WT Fitness Score” value was −2.44.
As for “EP300_99: 40-mer peptide tile of EP300, AA start position 588, KIX domain”, the “A375-NRAS Fitness Score” value with A375-NRAS^Q61K was determined as 0.86. Also, the “A375-WT Fitness Score” value in the assay with A375-WT is reported as −3.20.
Take “FER_38: 40-mer peptide tile of FER, AA start position 222, F-BAR domain (LKGIFDEYSQITSLVTEEIVNVHKEIQMSVEQIDPSTEYN; UniProt P16591 222-261, looked up, fragment)”: the “A375-NRAS Fitness Score” value in the assay on A375-NRAS^Q61K is given as −1.48. Further, the “A375-WT Fitness Score” value in the assay on A375-WT was −2.21.
The corresponding values for “FLCN_43: 40-mer peptide tile of FLCN, AA start position 252, Longin domain (ACLHTSFAWLLKACGSRLTEKLLEGAPTEDTLVQMEKLAD; UniProt Q8NFG4 252-291, looked up, fragment)” are −1.99 and −1.76.
As for “FZD3_55: 40-mer peptide tile of FZD3, AA start position 324, Transmembrane domain (IEKKALLFHASAWGIPGTLTIILLAMNKIEGDNISGVCFV; UniProt Q9NPG1 324-363, looked up, fragment)”, in the assay with A375-NRAS^Q61K, the “A375-NRAS Fitness Score” value is −3.27. In the assay with A375-WT, the “A375-WT Fitness Score” value is recorded as −3.21.
Take “MAD1L1_78: 40-mer peptide tile of MAD1L1, AA start position 462, Coiled Coil domain (ELGGQKQRADMLEMELKMLKSQSSSAEQSFLFSREEADTL; UniProt Q9Y6D9 462-501, looked up, fragment)”: the “A375-NRAS Fitness Score” value with A375-NRAS^Q61K is recorded as −3.52. In addition, in the assay with A375-WT, the “A375-WT Fitness Score” value is recorded as −4.42.
Regarding “MTOR_42: 40-mer peptide tile of MTOR, AA start position 246, HEAT domain”, the “A375-NRAS Fitness Score” value with A375-NRAS^Q61K is given as 1.01. In addition, the “A375-WT Fitness Score” value with A375-WT was −3.36. The substance further returned a Fitness score with A375-WT (PanCancer Peptide Table (Table 3), lentivirally expressed 40-mer peptide tile, negative = depleted) of −3.37.
As for “PIK3CA_38: 40-mer peptide tile of PIK3CA, AA start position 222, RBD (AEAIRKKTRSMLLSSEQLKLCVLEYQGKYILKVCGCDEYF; UniProt P42336 222-261, looked up, fragment)”, the “A375-NRAS Fitness Score” value with A375-NRAS^Q61K is recorded as −0.85. For the same substance, the “A375-WT Fitness Score” value in the assay with A375-WT is −2.72.
For the substance “SMARCA4_257: 40-mer peptide tile of SMARCA4, AA start position 1536, Bromodomain (AQTFNLEGSLIYEDSIVLQSVFTSVRQKIEKEDDSEGEES; UniProt P51532 1536-1575, looked up, fragment)”, the “A375-NRAS Fitness Score” value in the assay with A375-NRAS^Q61K was −0.54. In addition, the “A375-WT Fitness Score” value with A375-WT is given as −4.98.
As for “SMC3_124: 40-mer peptide tile of SMC3, AA start position 738, Coiled Coil domain (EMKMLKEKRQQSEKTFMPKQRSLQSLEASLHAMESTRESL; UniProt Q9UQE7 738-777, looked up, fragment)”, the “A375-NRAS Fitness Score” value in the assay on A375-NRAS^Q61K is listed as 0.13. In addition, the “A375-WT Fitness Score” value in the assay with A375-WT is −3.08. This substance showed a Fitness score with A375-WT (PanCancer Peptide Table, 40-mer peptide tile expressed from lentiviral library) of −3.09.
For the substance “SUZ12_23: 40-mer peptide tile of SUZ12, AA start position 132, WDB1 domain (FKVDDMLSKVEKMKGEQESHSLSAHLQLTFTGFFHKNDKP; UniProt Q15022 132-171, looked up, fragment)”, the “A375-NRAS Fitness Score” value in the assay with A375-NRAS^Q61K was −0.27. For the same substance, the “A375-WT Fitness Score” value in the assay on A375-WT is −2.12.

Values taken from patent publication US20260285924A1, “PEPTIDE THERAPEUTICS” (priority 2023, published 2026).
